“Also recorded” adds a separate entry of the source. Marks after values point to notes of the source that are not given here.
Columns and labels:
[1] = system: antennal olfactory receptors (short sensillum on the penultimate antennal segment of a CPB); assay: Single sensillum (single cell) recording of receptor neuron response; parameters: species or system Leptinotarsa decemlineata; settings: 100 ng source load; solvent control 8
Method: Sensitivity of antennal olfactory receptors for the racemate and optical isomers of the male specific compound were tested using coupled GC/EAD and single sensillum recording techniques. GC/EAD tests involved injection of 1 μl of serial dilutions of 3,7-dimethyl-2-oxo-oct-6-ene-1,3-diol (CPB I).

[2] = system: Colorado potato beetle (CPB); assay: Field test, baited pitfall traps; assay type: in vivo, Leptinotarsa decemlineata
Method: Insects: Insects were maintained under the same regimen as for laboratory bioassays. Prior to release in the field, adult CPB were combined into pint containers with moistened paper and potato foliage in groups of 25. Insects were removed from foliage ca. 3 hours prior to release.
Chemical treatments: (S)-CPB I vs. control. CPB I was dissolved into a carrier solution of 20% polyethylene glycol, 42% methanol, 25% glycerol, and 13% distilled water at a concentration of 1 μg/μl. For treatment lures, 500 μl were injected into 1″ long cigarette filters (500 μg CPBI/lure). Control lures consisted of 1″ cigarette filters treated with 500 μl of the carrier solution. Lures were prepared and placed into plastic zip-lock bags for transport to the field. (S)-CPB I+3-component plant blend vs. 3-component plant blend. (Z)-3-hexenyl acetate, (±)-linalool, and methyl salicylate (10 μl each) were added to 3 ml of the carrier solution for a total concentration of 1%. This solution was split into two 1.5 ml samples and CPB I dissolved into one of the samples at a concentration of 1 μg/μl. One treatment consisted of 500 μl of 1% 3-component plant blend injected into 1″ cigarette filters, 500 μl of 1% 3-component plant blend+1 μg/μl CPB I (500 μg CPB I/lure) injected into 1″ cigarette filters comprised the second treatment. Lures were prepared and placed into zip-lock bags for transport to the field.
Experimental procedure: Six pitfall traps (22 cm diam.×21 cm depth) were set in a hexagonal pattern 6 m diameter in an isolated grass field mowed one day prior to release of insects. One lure was attached to a 1 m vertical yellow posts set through the center of each pitfall trap, with treatment and controls alternating around the hexagonal array. Tacky-trap was laced along the rim of each pitfall trap, and on the center post at trap level, to prevent insect escape. […]
Statistical analysis: Field tests were assessed for significant differences by a paired t-test (Ostle, B., Statistics in Research (1963), 2nd ed., The Iowa State University Press, Ames, Iowa).

[3] = system: Colorado potato beetle (CPB); assay: Open Y-track olfactometer laboratory behavioral bioassay, pheromone and plant volatile blends; assay type: in vivo, Leptinotarsa decemlineata
Method: Insects: All life stages were reared on potted potato plants kept in screened cages inside incubators set for 16L:8D, 25° C. during photophase, 23° C. during scotophase, and 80% R.H. Upon emergence adult beetles were kept individually in plastic cups with perforated plastic snap-on lids, and provided with clean pieces of paper toweling and potato foliage daily.
Bioassay apparatus and protocol: Stock solutions of test compounds, e.g. (S)-CPB I, and individual plant volatiles 2-phenylethanol, nonanal and (±)-linalool, were prepared at 10 μg/μl in hexane. Serial dilutions were made to obtain a test solution of 0.1 μg/μl. Each bioassay treatment of CPB I used a 10 μl aliquot of test solution, or a total of 1 μg of neat material. A […] stock solution of a 3-component blend of selected potato volatiles, (Z)-3-hexenyl acetate, linalool, and methyl salicylate, was prepared as follows: 8.3 μl of each was added to 975 μl of mineral oil, creating a solution of 25 μg of blend components/μl. This stock solution was diluted to obtain a solution of 2.5 μg of blend components/μl. Each bioassay treatment of blend used a 20 μl aliquot of test solution, or a total of 50 μg (16.67 μg/component) of the components.
Prior to testing at age 7-14 days, unmated insects were held individually in 5.5 oz. cups, provided with fresh potato foliage on a continuous basis, and maintained under incubator conditions of 16L:8D, 80-90% R.H., and “day” and “night” temperatures of 25° C. and 23° C., respectively. On the day of testing, insects were transferred to smaller 1 oz. cups and held for 1-3 hrs with moist filter paper but no foliage, then held in darkness for an additional 1-2 hrs.
Individual chemicals and chemical blends were tested for activity in an open Y-track olfactometer modified after Visser and Piron (1998) and described in detail by Dickens (1999; 2000; and Dickens, J. C., et al., Breaking a paradigm: male-produced aggregation pheromone for Colorado potato beetle. Journal of Experimental Biology, 205: 1925-1933 (2002)). In brief, odorous stimuli emanating from synthetic blends on filter paper discs (2.5 cm dia.; Whatman™ #1 filter paper) in 500 ml Ehrlenmeyer flasks were delivered to either side of the device. Test odorants were pipetted onto 3-cm diam. filter paper disks, which were then transferred, using long forceps, into the Erlenmeyer flasks used in the assay. If only a single test solution were being used per treatment, it was placed in the center of the filter paper; if 2 test solutions were being used per treatment, the mineral oil solution was placed in the center, and the hexane solution was spotted around the edge of the filter paper disk. Treatments were replaced after 30 minutes of testing in order to minimize variation in odor concentrations. The location of the chemical blend was switched from one side of the bioassay apparatus to the other side midway through each run in order to avoid bias not associated with the experimental treatment. Hydrocarbon free air that was humidified by passing through distilled water carried the odor molecules to either arm of the bioassay apparatus. Airflow was regulated to 1 l/min by flow meters. Experiments were conducted in a darkened room at 22° C. in which the only source of light was that associated with the bioassay device. For all bioassays at least 40 adults (20 males and 20 females) were tested. Orientation was scored as soon as the test insect had moved completely from the horizontal to one of the 45° angle extension arms of the bioassay device. Following each test, the bioassay device was cleaned with acetone to remove contamination left by the insect.
Statistical analysis: Laboratory bioassays were assessed for significant differences by the hypothesis on binomial proportions based on the standard normal approximation (Brase and Brase, 1983).

## CC(C)=CCC[C@](C)(O)C(=O)CO [(S)-CPB I, (S)-3,7-dimethyl-2-oxo-oct-6-ene-1,3-diol]
[1]
  action potentials during 500 msec following the initial phasic increase: 25 action potentials
[2]; 500 μg CPB I/lure, mean of three replicates, 100 released, control 2.67
  Mean number of CPB captured, Males: 9.00*
[2]; 500 μg CPB I/lure, mean of three replicates, control 1.33
  Mean number of CPB captured, Females: 7.33*
[2]; combined mean of six replicates, control 2.00
  Mean number of CPB captured, Total: 8.17**
[3]; B = Control (solvent)
  Female % to A.: 90%**
  Male % to A.: 90%**
  Total % to A.: 90%**
[3]; B = Plant blend
  Female % to A.: 50%
  Male % to A.: 50%
  Total % to A.: 50%
[3]; comparator as in the treatment pair of Table 2
  attraction / preference (in words): attracted both male and female beetles; also recorded: no preference was shown for either attractant
